Results as given in US20250073249A1, “STEROID COMPOUND, AND PREPARATION METHOD THEREFOR AND USE THEREOF” (SHANGHAI INSTITUTE OF MATERIA MEDICA, CHINESE ACADEMY OF …, priority 2022, published 2025).
Positions count from the first letter of the chain named. pIC50: −log10 of the molar value. Values belong to the compound of their own block, whether it stands above or below them.

Assays:
[1] = system: 22RV1 prostate cancer cells; assay: Anti-proliferative activity against resistant 22RV1 cells expressing AR-V7; format: cell-based; conditions: for Activity against tumor cells expressing AR splice variants: 22RV1 cells, in words; for pIC50: Homo sapiens, 22RV1 cells expressing AR-V7 splice variant, read-out: Antiproliferative activity IC50
Protocol: (§1) The cells were then digested with trypsin and counted using an automated cell counter to determine cell density. The cell suspension was diluted to the desired density in growth medium. Subsequently, 100 μL of the cell suspension was seeded into 96-well plates and incubated at 37° C. with 5% CO2 for 24 hours. 10 μL of drug solution (including 3-fold serial dilutions of compounds or DMSO) was added to each well, and the plates were incubated at 37° C. with 5% CO2 for 6 days. Prior to measurement, the assay plates were equilibrated to room temperature. 40 μL of CellTiter-Glo® reagent was added to each well. The plates were mixed on an orbital shaker for 2 minutes to induce cell lysis. After incubation at room temperature for 60 minutes to stabilize the luminescence signal, the plates were read on an Envision plate reader.
The experimental procedure was essentially the same as that for LNCaP cells.

[2] = biological target: T1, wild-type AR (Homo sapiens, UniProt P10275); assay: Wild-type AR antagonist activity test (luciferase reporter in HEK293 cells); format: cell-based; conditions: for pIC50: HEK293 cells, luciferase expression, DHT 1.5 nM, 24 hours; for AR antagonist activity, times higher than that of the control enzalutamide: ratio to enzalutamide IC50
T1 construct: expressed in transfected cells; host or cells: HEK293
T1 sequence (P10275 1-920): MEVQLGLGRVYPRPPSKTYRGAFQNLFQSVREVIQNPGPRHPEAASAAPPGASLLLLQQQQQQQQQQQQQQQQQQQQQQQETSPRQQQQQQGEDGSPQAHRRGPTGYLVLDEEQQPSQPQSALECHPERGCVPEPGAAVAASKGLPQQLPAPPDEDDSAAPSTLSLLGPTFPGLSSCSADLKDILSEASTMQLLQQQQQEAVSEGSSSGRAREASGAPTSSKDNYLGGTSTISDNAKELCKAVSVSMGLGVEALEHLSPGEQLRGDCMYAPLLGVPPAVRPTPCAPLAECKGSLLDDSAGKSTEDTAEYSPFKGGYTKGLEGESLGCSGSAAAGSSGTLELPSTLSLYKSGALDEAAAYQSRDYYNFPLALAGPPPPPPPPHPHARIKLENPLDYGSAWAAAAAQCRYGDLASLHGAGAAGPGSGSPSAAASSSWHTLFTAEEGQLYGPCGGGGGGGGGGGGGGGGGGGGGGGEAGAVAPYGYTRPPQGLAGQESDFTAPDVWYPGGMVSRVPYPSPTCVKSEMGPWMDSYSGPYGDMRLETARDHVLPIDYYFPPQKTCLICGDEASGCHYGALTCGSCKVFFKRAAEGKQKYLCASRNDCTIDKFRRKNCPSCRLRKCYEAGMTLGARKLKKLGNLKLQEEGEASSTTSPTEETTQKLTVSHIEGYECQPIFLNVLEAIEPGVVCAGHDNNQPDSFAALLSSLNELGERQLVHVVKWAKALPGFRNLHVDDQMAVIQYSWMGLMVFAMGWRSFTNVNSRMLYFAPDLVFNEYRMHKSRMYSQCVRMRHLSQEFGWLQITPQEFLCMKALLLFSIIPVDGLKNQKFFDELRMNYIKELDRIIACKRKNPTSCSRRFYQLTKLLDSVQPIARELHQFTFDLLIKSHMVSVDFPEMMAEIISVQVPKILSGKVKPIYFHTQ
Protocol: HEK293 cells were cultured in DMEM containing 10% fetal bovine serum (FBS) at 37° C. with 5% CO2. The cells were then digested with trypsin and counted. A 10 μL/well transfection solution was prepared in opti-MEM containing 5 ng androgen receptor clone, 100 ng pGL4.36 vector, and 315 nL fugene. […] The diluted cell suspension was seeded into 96-well plates at 90 μL (40,000 cells/well), and the plates were incubated for 24 hours. Then, 10 μL of drug solution (including gradient diluted compounds or DMSO) was added, and the plates were incubated for 30 minutes. […] After 24 hours of incubation, 100 μL of Steady-Glo was added to each well of the plate, the plate was shaken at room temperature for 20 minutes, and read on an Envision.

[3] = biological target: T2, AR (Homo sapiens, UniProt P10275, T878A); assay: In vitro AR degradation activity test in LNCaP cells (ELISA, OD450); format: cell-based; conditions: LNCaP cells, 24 hours
T2 construct: endogenous in cells; host or cells: LNCaP
T2 sequence (P10275 1-920 T878A): T1 sequence (P10275 1-920) with T878A
Protocol: The cells were then digested with trypsin and counted using an automated cell counter. The cell suspension was diluted to the desired density in growth medium. The cell suspension was then seeded into 96-well plates at 100 μL per well, and the plates were incubated at 37° C. with 5% CO2 for 24 hours. The compounds were then diluted 200-fold to the final concentration with DMSO or 3-fold to the final concentration with culture medium. 50 μL of compound solution was transferred to the 96-well plate and incubated at 37° C. for 24 hours. After 24 hours of incubation, the cell plate was washed 3 times with DPBS, 100 μL of 1× lysis buffer was added to each well, and placed on ice for 30 minutes. The supernatant was collected. The protein in the cell lysate samples was quantified and then diluted to the required concentration. 100 μL of cell lysate sample was added to the appropriate wells, sealed with tape and pressed firmly on top of the wells, and the plate was incubated at 37° C. for 2 hours. The plate contents were then discarded, and washed 4 times with 1× wash buffer, 200 μL per well each time. 100 μL of reconstituted detection antibody was then added, the plate was sealed with tape and incubated at 37° C. for 1 hour. The aspiration/wash step was then repeated, 100 μL of reconstituted HRP-Linked secondary antibody was added to each well, the plate was sealed with tape and incubated at 37° C. for 30 minutes. The aspiration/wash step was then repeated, 100 μL of substrate solution was added to each well and incubated at 37° C. for 10 minutes, and finally 100 μL of stop solution was added to each well. The plate was gently tapped to ensure thorough mixing, and the OD450 nm was recorded.
Degradation rate (%)=(OD450_max−OD450_sample)/(OD450_max−OD450_min)×100,plotted using GraphPad Prism 5 software, and IC50 is calculated using SPSS software.

[4] = system: LNCaP cells; assay: In vitro LNCaP cell proliferation inhibition test (CellTiter-Glo); format: cell-based; conditions: for Maximum Inhibition (%) / pIC50: 6 days; for pIC50: Homo sapiens, read-out: Anti-proliferative activity IC50
Protocol: as §1

[5] = In vivo pharmacokinetics in rats after oral gavage; conditions: male SD rats, PO 10 mg/kg; for AUC(0-inf) / AUC(0-t) / half-life / Cmax / tmax: rat, plasma; for Cmax: read-out: Cmax; for tmax: read-out: tmax
Protocol: Male SD rats were randomly divided into 6 groups, 3 rats per group. The rats were fasted but not water-deprived for 12-14 h one day before dosing. The test samples were then dissolved in a solvent of 5% DMSO+30% PEG400+65% (0.5% MC) and administered by gavage at 10 mg/kg. Food was provided 4 h after dosing. Blood samples (0.10 mL) were collected via the orbital sinus at 0, 15, 30 min, 1, 2, 4, 6, 8, and 24 h, with EDTA-K2 as anticoagulant. Blood samples were placed on ice after collection and centrifuged to separate plasma within 30 minutes (centrifugation conditions: 5000 rpm, 10 minutes, 4° C.). 50.0 μL of plasma sample (taken from −80° C. freezer, thawed naturally at room temperature and vortexed for 30 seconds) was added to a 1.5 mL centrifuge tube, followed by addition of 500 μL internal standard solution (methanol (TEDIA, HPLC grade), acetonitrile (TEDIA, HPLC grade), formic acid (FA, ACROS ORGANICS, HPLC grade), water was laboratory-made ultrapure water (100.0 ng·mL−1)). The mixture was vortexed for 60 seconds and centrifuged for 3 minutes (centrifugal force 12000 rpm). 100 μL of the supernatant was transferred to a 96-well injection plate containing an equal volume of water, mixed by shaking, and analyzed by LC-MS/MS with an injection volume of 10 μL. The data acquisition and control system software was Analyst 1.5.1 software (Applied Biosystem). The chromatographic sample peaks were integrated automatically. The ratio of sample peak area to internal standard peak area was used as an indicator for regression with sample concentration.
The pharmacokinetic parameters of representative compounds of the present invention were tested in male SD rats after oral gavage administration at 10 mg/kg according to the above conventional method to examine the pharmacokinetic characteristics of the compounds of the present invention in rats.

[6] = system: TMPRSS2; assay: TMPRSS2 mRNA expression in A549 cells (qPCR); format: cell-based; conditions: 10 μM, 1 nM DHT, 48 h, Blank = 1
[7] = system: ACE2; assay: ACE2 mRNA expression in A549 cells (qPCR); format: cell-based; conditions: 10 μM, 1 nM DHT, 48 h, Blank = 1

pIC50 [1]: < 5.00
Structure (SMILES): CNC(=O)c1ccc(N2C(=S)N(c3cnc(C#N)c(C(F)(F)F)c3)C(=O)C23CCC3)cc1F [Apalutamide, apalutamide]
Activity against tumor cells expressing AR splice variants [1]: no activity

Structure (SMILES): Cc1cn(C2=CCC3C4CC=C5C[C@@H](NC(=O)c6ccnnc6)CC[C@]5(C)C4CC[C@]23C)cn1 (some centres unmarked) [Compound 13]
pIC50 [2]: 6.61
AR antagonist activity, times higher than that of the control enzalutamide [2]: 1.8 times
DC50 [3]: 2080 nM
Maximum Inhibition (%) [4]: 96.97%
pIC50 [4]: 6.33
Anti-tumor activity and efficacy compared to enzalutamide ([4]; in words): comparable anti-tumor activity but significantly superior anti-tumor efficacy compared to enzalutamide

Structure (SMILES): C[C@]12CC[C@H](NC(=O)c3ccnnc3)CC1=CCC1C2CC[C@]2(C)C(n3ccnc3)=CCC12 (some centres unmarked) [Compound 16]
DC50 [3]: 2760 nM
Maximum Inhibition (%) [4]: 92.41%
pIC50 [4]: 6.42
Kel [5]: 0.296 h⁻¹
MRTPO [5]: 6.25 h
AUC(0-inf) [5]: 37500 ng·h/mL
AUC(0-t) [5]: 37400 ng·h/mL
half-life [5]: 142 min
Cmax [5]: 3240 ng/mL
tmax [5]: 4 h

Structure (SMILES): C[C@]12CC[C@H](NC(=O)c3ccncc3)CC1=CCC1C2CC[C@]2(C)C(n3ccnc3)=CCC12 (stereo partly drawn) [Compound 17, N-((3S,10R,13S)-17-(1H-imidazol-1-yl)-10,13-dimethyl-2,3,4,7,8,9,10,11,12,13,14,15-dodecahydro-1H-cyclopenta[a]phenanthren-3-yl)isonicotinamide]
DC50 [3]: 1980 nM
Maximum Inhibition (%) [4]: 96.99%
pIC50 [4]: 6.50
Anti-proliferative activity, fold improvement compared to abiraterone ([4]; ratio to abiraterone IC50): 8.8 fold
Kel [5]: 0.112 h⁻¹
MRTPO [5]: 15.5 h
AUC(0-inf) [5]: 65600 ng·h/mL
AUC(0-t) [5]: 28800 ng·h/mL
half-life [5]: 600 min
Cmax [5]: 4500 ng/mL
tmax [5]: 2 h

Structure (SMILES): Cc1cn(C2=CCC3C4CC=C5C[C@@H](NC(=O)c6ccc([N+](=O)[O-])cc6)CC[C@]5(C)C4CC[C@]23C)cn1 (stereo partly drawn) [Compound 34, N-((3S,10R,13S)-17-(4-methyl-1H-imidazol-1-yl)-10,13-dimethyl-2,3,4,7,8,9,10,11,12,13,14,15-dodecahydro-1H-cyclopenta[a]phenanthren-3-yl)-4-nitrobenzamide]
pIC50 [2]: 7.15
AR antagonist activity, times higher than that of the control enzalutamide [2]: 6.2 times
DC50 [3]: 2600 nM

pIC50 [1]: < 5.00
Structure (SMILES): CC(O)c1cc(C(=O)N[C@@H](C)Cn2ccc(-c3ccc(C#N)c(Cl)c3)n2)[nH]n1 (some centres unmarked) [Darolutamide, darolutamide]
Activity against tumor cells expressing AR splice variants [1]: no activity

Structure (SMILES): CNC(=O)c1ccc(N2C(=S)N(c3ccc(C#N)c(C(F)(F)F)c3)C(=O)C2(C)C)cc1F [Enzalutamide, enzalutamide, reference compound]
Maximum Inhibition (%) [4]: 55.16%
Activity against tumor cells expressing AR splice variants [1]: no activity

Structure (SMILES): CC1(C)C(=O)N(c2ccc(C#N)c(C(F)(F)F)c2F)C(=S)N1c1ccc(CCCc2ncco2)nc1 [Proxalutamide, proxalutamide, reference compound]
TMPRSS2 mRNA level [6]: 0.608
ACE2 mRNA level [7]: 0.463
